Reference: paper PMC3942743 (Toxins, 2014)
Where a name gives a salt, the structure may show the parent alone.

Target: uremic plasma (Homo sapiens, UniProt P02768)
Experiment: Binding capacity of uremic plasma for IS at different NaCl concentrations
Format: in vitro ADME
Experimental: After having received approval from the competent institutional review board (ethics committee of the University Hospital Würzburg, code AZ 64/12), written informed consent was obtained from 15 end-stage renal disease patients on maintenance hemodialysis in a single dialysis center (Dialysis center, Elsenfeld, Germany). Blood (7.5 mL) was collected in EDTA-tubes from each patient before dialysis.

Sequence of uremic plasma (P02768 25-609): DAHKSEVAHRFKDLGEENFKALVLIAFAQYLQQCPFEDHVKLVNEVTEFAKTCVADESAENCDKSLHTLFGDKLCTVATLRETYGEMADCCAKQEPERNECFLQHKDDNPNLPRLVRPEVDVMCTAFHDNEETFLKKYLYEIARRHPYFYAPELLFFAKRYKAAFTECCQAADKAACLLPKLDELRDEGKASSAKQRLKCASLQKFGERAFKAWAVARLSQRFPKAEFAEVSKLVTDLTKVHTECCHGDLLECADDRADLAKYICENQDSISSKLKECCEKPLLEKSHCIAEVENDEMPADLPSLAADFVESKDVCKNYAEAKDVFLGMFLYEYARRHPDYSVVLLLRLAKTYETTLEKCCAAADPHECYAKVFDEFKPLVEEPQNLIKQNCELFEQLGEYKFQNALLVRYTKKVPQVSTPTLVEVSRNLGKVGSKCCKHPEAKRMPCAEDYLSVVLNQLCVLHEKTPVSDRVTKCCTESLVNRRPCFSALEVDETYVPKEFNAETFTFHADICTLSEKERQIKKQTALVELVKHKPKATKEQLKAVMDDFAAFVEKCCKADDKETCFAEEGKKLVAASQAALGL

`Cc1ccc(OS(=O)(=O)O)cc1` [p-cresyl sulfate] was tested, and the protein bound fraction ([…] NaCl, uremic plasma 1:2 diluted, native toxin) was 91% ± 2% and the “total (native) toxin concentration in uremic plasma” value (plasma of hemodialysis patients before dialysis) was 90 ± 28 µM.
